Results from patent US9126945B2, “N-(3-carbamoylphenly)-1H-pyrazole-5-carboxamide derivatives and the use thereof for controlling animal pests” (BAYER INTELLECTUAL PROPERTY GMBH, priority 2011, dated 2015).

What was measured:
[1] = tested on: Spodoptera frugiperda; experiment: Spodoptera frugiperda test (SPODFR spray treatment), maize leaf discs; format: in vivo; conditions: application rate 500 g/ha; after 7 days
Text: Spodoptera frugiperda Test (SPODFR Spray Treatment)

[2] = tested on: Myzus persicae; experiment: Myzus test (MYZUPE spray treatment); format: in vivo; conditions: for efficacy in %: application rate 500 g/ha, after 6 days
Procedure: Myzus test (Myzupe spray treatment)
After 6 days, the efficacy in % is determined.
Myzus Test (MYZUPE Spray Treatment)

[3] = tested on: Tetranychus urticae; experiment: Tetranychus test, OP-resistant (TETRUR spray treatment), bean leaf discs; format: in vivo; conditions: for efficacy in %: application rate 500 g/ha, after 6 days
Procedure: Tetranychus Test, OP-Resistant (TETRUR Spray Treatment)
After a time of 6 days, the efficacy in % is determined.

[4] = tested on: Ctenocephalides felis; experiment: Ctenocephalides felis oral (CTECFE); format: in vivo; conditions: for kill in % (effect): 100 ppm, after 2 days; for inhibition at 0.8 ppm: Ctenocephalides felis, po, 48 h, CTECFE, 2 dat
Procedure: Ctenocephalides felis Oral (CTECFE)
Solvent: 1 part by weight of dimethyl sulphoxide
For the purpose of producing a suitable preparation of active compound, 10 mg of active compound are mixed with 0.5 ml of dimethyl sulphoxide. A portion of the concentrate is diluted with citrated cattle blood, and the desired concentration is prepared.
(§1) About 20 unfed adult fleas (Ctenocephalides felis) are placed into a chamber which is closed at the top and bottom with gauze. A metal cylinder whose bottom end is closed with parafilm is placed onto the chamber. The cylinder contains the blood/active compound preparation, which can be taken up by the fleas through the parafilm membrane. After 2 days, the kill in % is determined.
For the purpose of preparing an appropriate active compound formulation, 10 mg of active compound are mixed with 0.5 ml of dimethyl sulphoxide. A portion of the concentrate is diluted with citrated cattle blood, and the desired concentration is prepared.
as §1, with “membrane.” for “membrane. After 2 days, the kill in % is determined.”

[5] = tested on: Lucilia cuprina larvae; experiment: Lucilia cuprina test (LUCICU); format: in vivo; conditions: 100 ppm; after 2 days
Procedure: Lucilia cuprina Test (LUCICU)
(§2) Solvent: dimethyl sulphoxide
Vessels containing horse meat treated with the active compound preparation of the desired concentration are populated with about 20 Lucilia cuprina larvae.
(§3) After 2 days, the kill in % is determined.

[6] = tested on: Musca domestica; experiment: Musca domestica test (MUSCDO); format: in vivo; conditions: 100 ppm; after 2 days
Procedure: Musca domestica Test (MUSCDO)
as §2
Vessels containing a sponge treated with the active compound preparation of the desired concentration are populated with adult Musca domestica.
as §3
Vessels containing a sponge treated with the active compound formulation of the desired concentration are populated with adult Musca domestica.
After the desired period of time, the kill in % is determined.

[7] = tested on: Boophilus microplus; experiment: Boophilus microplus test (BOOPMI injection); format: in vivo; conditions: for efficacy in % (laying of fertile eggs): 20 μg/animal, after 7 days; for % Activity dat: BOOPMI injection, 0.032 μg/animal, 7 dat
Procedure: Boophilus microplus Test (BOOPMI Injection)
as §2
The active compound solution is injected into the abdomen (Boophilus microplus), and the animals are transferred into dishes and stored in a climate-controlled room. The activity is assessed by laying of fertile eggs.
The active compound solution is injected into the abdomen (Boophilus microplus), and the animals are transferred into dishes and stored in a climate-controlled room.
The activity is assessed by laying of fertile eggs. 100% means that none of the ticks has laid any fertile eggs.

[8] = tested on: Boophilus microplus females of the SP-resistant Parkhurst strain; experiment: Boophilus microplus test (DIP); format: in vivo; conditions: for efficacy in % (laying of fertile eggs): 100 ppm, after 7 days; for inhibition at 20 ppm: Rhipicephalus microplus, 168 h, BOOPMI DIP, 7 dat
Procedure: Boophilus microplus Test (DIP)
Test animals: adult engorged Boophilus microplus females of the SP-resistant Parkhurst strain
as §2
10 mg of active compound are dissolved in 0.5 ml of dimethyl sulphoxide. For the purpose of preparing a suitable formulation, the active compound solution is diluted with water to the concentration desired in each case.
This active compound preparation is pipetted into tubes. 8-10 ticks are transferred into a further tube with holes. The tube is immersed into the active compound formulation, and all ticks are completely wetted. After the liquid has rum off, the ticks are transferred to filter discs in plastic dishes and kept in a climatized room. The activity is assessed after 7 days by laying of fertile eggs. Eggs whose fertility is not outwardly visible are stored in glass tubes in a climate-controlled cabinet until the larvae hatch. An efficacy of 100% means that none of the ticks has laid any fertile eggs.
10 mg of active compound are dissolved in 0.5 ml of dimethyl sulphoxide. For the purpose of preparing a suitable formulation, the active compound solution is diluted with water to the concentration desired in each case (in ppm).
This active compound preparation is pipetted into tubes. 8-10 ticks are transferred into a further tube with holes. The tube is immersed into the active compound formulation, and all ticks are completely wetted. After the liquid has run out, the ticks are transferred onto filter discs in plastic dishes and stored in a climate-controlled room.
The activity is assessed after the desired time by laying of fertile eggs. Eggs whose fertility is not evident from the outside are kept in glass tubes in a climate-controlled cabinet until the larvae have hatched. An effect of 100% means that none of the ticks has laid any fertile eggs.

[9] = tested on: Phaedon cochleariae; experiment: Phaedon cochleariae spray test (PHAECO), cabbage leaves, ppm; format: in vivo; conditions: 168 h, 0.8 ppm, 7 dat
Text: Phaedon cochleariae Spray Test (PHAECO)
(§4) Solvent: 7 parts by weight of dimethylformamide
(§5) Emulsifier: 2 parts by weight of alkylaryl polyglycol ether
(§6) If the addition of ammonium salts or/and penetrants is required, these are in each case added in a concentration of 1000 ppm to the solution of the preparation.

[10] = tested on: Nilaparvata lugens; experiment: Nilaparvata lugens spray test (NILALU); format: in vivo; conditions: 168 h, 7 dat
Text: Nilaparvata lugens Spray Test (NILALU)
as §6

[11] = log P by HPLC, EEC Directive 79/831 Annex V.A8, method a); format: physicochemical; conditions: reversed-phase C18, acetonitrile/water with formic acid, gradient 10% to 95% acetonitrile; for chromatographic logP: reversed-phase C18 HPLC column; cell marked a): HPLC; for logP: cell marked a): HPLC
Procedure: (§7) ^a) Note regarding the determination of the log P values and mass detection The determination of the given log P values was carried out in accordance with EEC Directive 79/831 Annex V.A8 by HPLC (High Performance Liquid Chromatography) on a reversed-phase column (C18). Agilent 1100 LC system; 50*4.6 Zorbax Eclipse Plus C18 1.8 micron; mobile phase A: acetonitrile (0.1% formic acid); mobile phase B: water (0.09% formic acid); linear gradient from 10% acetonitrile to 95% acetonitrile in 4.25 min, then 95% acetonitrile for a further 1.25 min; oven temperature 55° C.; flow rate: 2.0 ml/min Mass detection is via an Agilend MSD system.
as §7, with “mass detection:” for “mass detection”, “2.0 ml/min.” for “2.0 ml/min”

[12] = tested on: Phaedon cochleariae; experiment: Phaedon test (PHAECO spray treatment), Chinese cabbage leaf discs; conditions: application rate 500 g/ha; after 7 days
[13] = tested on: Plutella xylostella; experiment: Plutella xylostella spray test (PLUTMA); format: in vivo; conditions: 168 h, 7 dat
Text: Plutella xylostella Spray Test (PLUTMA)
as §4, §5, §6

[14] = tested on: Spodoptera frugiperda; experiment: Spodoptera frugiperda spray test (SPODFR), cotton leaves, ppm; format: in vivo; conditions: 168 h, 7 dat
Text: Spodoptera frugiperda Spray Test (SPODFR)
as §4, §5, §6
Cotton leaves (Gossypium hirsutum) are sprayed with an active compound formulation of the desired concentration and populated with caterpillars of the armyworm (Spodoptera frugiperda).

[15] = tested on: Tetranychus urticae; experiment: Tetranychus urticae spray test, OP-resistant (TETRUR), bean plants, ppm; format: in vivo; conditions: 168 h, 4 ppm, 7 dat
Text: Tetranychus urticae Spray Test, OP-Resistant (TETRUR)
as §4, §5, §6

[16] = tested on: Heliothis armigera; experiment: Heliothis armigera spray test (HELIAR); format: in vivo; conditions: Helicoverpa armigera, 168 h, 20 ppm, 7 dat
Text: Heliothis armigera Spray Test (HELIAR)
as §4, §5, §6

[17] = tested on: Frankliniella occidentalis; experiment: Frankliniella occidentalis spray test (FRANOC); format: in vivo; conditions: 168 h, 20 g/ha, 7 dat
Text: Frankliniella occidentalis Spray Test (FRANOC)
as §6

## CCN(C(=O)c1c(C(F)(F)F)c(C(F)(F)C(F)(F)F)nn1C)c1ccc(Cl)c(C(=O)NC2(C#N)CC2)c1 [Example 6]
[1]
  efficacy in %: 100%
[2]; Myzus persicae, 144 h, MYZUPE, 20 g/ha, 6 dat
  inhibition at 20 g/ha: 70%
[2]
  efficacy in %: 100%
[3]; Tetranychus urticae, foliar, 144 h, TETRUR, 20 g/ha, 6 dat
  inhibition at 20 g/ha: 100%
[3]
  efficacy in %: 100%
[4]
  kill in % (effect): 100%
  inhibition at 0.8 ppm: 80%
[5]
  kill in % (efficacy): 100%
[6]
  kill in % (efficacy): 100%
[7]
  efficacy in % (laying of fertile eggs): 100%
  % Activity dat: 70%
[8]
  efficacy in % (laying of fertile eggs): 100%
  inhibition at 20 ppm: 100%
[9]
  inhibition at 0.8 ppm: 100%
[10]; 20 g/ha
  inhibition at 20 g/ha: 90%
[11]
  chromatographic logP: 3.36
[12]
  efficacy in %: 100%

## Cn1nc(C(F)(F)C(F)(F)F)c(C(F)(F)F)c1C(=O)Nc1ccc(Cl)c(C(=O)NC2(C#N)CCC2)c1 [Example 7]
[1]
  efficacy in %: 83%
[3]
  efficacy in %: 100%
[4]
  kill in % (effect): 80%
[5]
  kill in % (efficacy): 100%
[6]
  kill in % (efficacy): 100%
[7]
  efficacy in % (laying of fertile eggs): 100%
[11]
  logP: 3.55 ^a)
[12]
  efficacy in %: 100%

## CN(C(=O)c1c(C(F)(F)F)c(C(F)(F)C(F)(F)F)nn1C)c1ccc(Cl)c(C(=O)NC2(C#N)CC2)c1 [Example 8]
[1]
  efficacy in %: 100%
[2]; Myzus persicae, 144 h, MYZUPE, 100 g/ha, 6 dat
  inhibition at 100 g/ha: 100%
[2]
  efficacy in %: 100%
[3]
  efficacy in %: 100%
[4]
  kill in % (effect): 100%
  inhibition at 0.8 ppm: 90%
[5]
  kill in % (efficacy): 100%
[6]
  kill in % (efficacy): 100%
[7]
  efficacy in % (laying of fertile eggs): 100%
  % Activity dat: 100%
[8]
  efficacy in % (laying of fertile eggs): 100%
  inhibition at 20 ppm: 100%
[9]
  inhibition at 0.8 ppm: 100%
[13]
  inhibition at 20 ppm: 100%
[14]
  inhibition at 20 ppm: 100%
[15]
  inhibition at 4 ppm: 95%
[11]
  chromatographic logP: 3.21
[12]
  efficacy in %: 100%

## Cn1nc(C(F)(F)F)c(C(F)(F)F)c1C(=O)Nc1ccc(Cl)c(C(=O)NC2(C#N)CC2)c1 [Example 9]
[1]
  efficacy in %: 100%
[2]
  efficacy in %: 90%
[3]
  efficacy in %: 100%
[4]
  kill in % (effect): 100%
[5]
  kill in % (efficacy): 100%
[7]
  efficacy in % (laying of fertile eggs): 100%
[8]
  efficacy in % (laying of fertile eggs): 100%
[11]
  logP: 2.85 ^a)
[12]
  efficacy in %: 100%

## Cn1nc(C(F)(F)C(F)(F)F)c(C(F)(F)F)c1C(=O)Nc1ccc(Cl)c(C(=O)NC2CC2)c1 [Ik-1]
[4]
  inhibition at 0.8 ppm: 0%
[14]
  inhibition at 20 ppm: 20%
[16]
  inhibition at 20 ppm: 45%
[15]
  inhibition at 4 ppm: 40%
[10]; 500 g/ha
  inhibition at 500 g/ha: 0%
[17]
  inhibition at 20 g/ha: 0%
